Test results: the Kinase Knowledgebase extract (Sharma et al. 2016)
pIC50: −log10 of the molar value.

Biological target: CDK2 (UniProt P24941)
Assay: Enzyme Assay

SMILES | pIC50
O=C(Cc1cccc(-c2ccccc2)c1)Nc1n[nH]c2c1CCC2 | 5.10
O=C(Cc1ccc(-c2ccccc2F)cc1)Nc1n[nH]c2c1CCC2 | 5.15
O=C(Nc1n[nH]c2c1CCC2)C1CC1 | 5.40
CC(=O)c1ccc(-c2ccc(CC(=O)Nc3n[nH]c4c3CCC4)cc2)cc1 | 5.19
O=C(Cc1ccc(-c2cccc(F)c2)cc1)Nc1n[nH]c2c1CCC2 | 5.15
COc1ccc(OC)c(CC(=O)Nc2n[nH]c3c2CCC3)c1 | 5.28
CC(=O)c1cccc(-c2ccc(CC(=O)Nc3n[nH]c4c3CCC4)cc2)c1 | 5.37
COc1ccccc1-c1ccc(CC(=O)Nc2n[nH]c3c2CCC3)cc1 | > 5.00
O=C(Nc1n[nH]c2c1CCC2)c1ccccc1 | 5.15
COc1cccc(-c2ccc(CC(=O)Nc3n[nH]c4c3CCC4)cc2)c1 | > 5.00
O=C(Cc1ccc(-c2ccc(F)cc2)cc1)Nc1n[nH]c2c1CCC2 | > 5.00
O=C(Nc1n[nH]c2c1CCC2)c1ccc2c(c1)OCO2 | 5.40
O=C(Cc1cccs1)Nc1n[nH]c2c1CCC2 | 5.40
O=C(Nc1n[nH]c2c1CCC2)c1cccc(F)c1 | 5.30
COc1cccc(CC(=O)Nc2n[nH]c3c2CCC3)c1 | 5.12
O=C(Nc1n[nH]c2c1CCC2)c1cccs1 | 5.40
COc1ccc(-c2ccc(CC(=O)Nc3n[nH]c4c3CCC4)cc2)cc1 | > 5.00
COc1ccc(C(=O)Nc2n[nH]c3c2CCC3)cc1 | 5.22

Next, values leading:

pIC50 | SMILES
6.15 | COc1ccc(CC(=O)Nc2n[nH]c3c2CCC3)cc1
6.00 | CC(C)(C)c1ccc(CC(=O)Nc2n[nH]c3c2CCC3)cc1
6.10 | O=C(Cc1ccc(I)cc1)Nc1n[nH]c2c1CCC2
5.82 | O=C(Cc1cccc(Br)c1)Nc1n[nH]c2c1CCC2
5.52 | O=C(Cc1ccc(F)cc1)Nc1n[nH]c2c1CCC2
5.82 | CSc1ccc(CC(=O)Nc2n[nH]c3c2CCC3)cc1
5.96 | O=C(Cc1ccc(Br)cc1)Nc1n[nH]c2c1CCC2
5.52 | O=C(CCc1ccccc1)Nc1n[nH]c2c1CCC2
6.00 | O=C(Cc1ccc(-c2ccccc2)cc1)Nc1n[nH]c2c1CCC2
5.82 | O=C(Cc1ccccc1)Nc1n[nH]c2c1CCC2
